Article PMC9230431, “Application of In Silico Filtering and Isothermal Titration Calorimetry for the Discovery of Small Molecule Inhibitors of MDM2” (Pharmaceuticals, 2022)
Where two headings read alike, the source gives them in different places.

Target: T1, MDM2 (Homo sapiens, UniProt Q00987)
T1 construct: His tag-GB1-TEV site fusion expressed in E. coli BL21; His-GB1 removed by TEV cleavage
Test: ITC, MDM2 titrated into compound, single-site fit
Type: binding
Excerpt: ITC, MDM2 titrated into compound, single-site fit on MDM2

T1 sequence (Q00987 5-125): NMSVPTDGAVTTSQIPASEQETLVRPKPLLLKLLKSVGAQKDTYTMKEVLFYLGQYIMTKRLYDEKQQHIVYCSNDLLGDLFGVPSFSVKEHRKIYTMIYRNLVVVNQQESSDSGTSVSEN

Row | SMILES | Kd [µM] | Kd (50 mM sodium phosphate pH 6.8, 150 mM NaCl, 5% DMSO, 1 mM TCEP) [µM]
1 | O=S(=O)(NC(c1c[nH]c2ccccc12)C(Cl)(Cl)Cl)c1ccc(Cl)cc1 (stereo not shown) [M2] | 2.08 | –
2 | O=S(=O)(NC(c1c[nH]c2cccc(Cl)c12)C(Cl)(Cl)Cl)c1ccc(Cl)cc1 (stereo not shown) [M2-10] | 0.578 | –
3 | O=S(=O)(NC(c1c[nH]c2cccc(F)c12)C(Cl)(Cl)Cl)c1ccc(Cl)cc1 (stereo not shown) [M2-7] | 0.979 | –
4 | COc1ccccc1-c1nnc(SC2CCCCC2=O)n1-c1ccc(Cl)cc1 (stereo not shown) [M3] | 16.6 | –
5 | Cc1[nH]c2ccccc2c1C(NS(=O)(=O)c1ccc(Cl)cc1)C(Cl)(Cl)Cl (stereo not shown) [M2-3] | – | 49.7
6 | O=S(=O)(NC(c1c[nH]c2ccc(F)cc12)C(Cl)(Cl)Cl)c1ccc(Cl)cc1 (stereo not shown) [M2-8] | 1.58 | –
7 | Cc1ccc(S(=O)(=O)NC(c2c[nH]c3cc(F)ccc23)C(Cl)(Cl)Cl)cc1 (stereo not shown) [M2-18] | 1.33 | –
8 | Cc1ccc2c(C(NS(=O)(=O)c3ccc(Cl)cc3)C(Cl)(Cl)Cl)c[nH]c2c1 (stereo not shown) [M2-12] | 0.844 | –

Further compounds by falling Kd, results first:

Row | Kd [µM] | Kd (50 mM sodium phosphate pH 6.8, 150 mM NaCl, 5% DMSO, 1 mM TCEP) [µM] | SMILES
9 | 33.5 | – | Cc1cccc(C)c1NC(=O)C(c1ccc(Cl)cc1)N1C(=O)CC1c1cccc(C(F)(F)F)c1 (stereo not shown) [M1-7]
10 | 19.5 | – | Cc1cccc(C)c1NC(=O)C(c1ccc(Cl)cc1)N1C(=O)CC1c1ccsc1 (stereo not shown) [M1-10]
11 | 13.1 | – | Cc1ccc(C2CC(=O)N2C(C(=O)Nc2c(C)cccc2C)c2ccc(Cl)cc2)o1 (stereo not shown) [M1-11]
12 | 3.16 | – | COc1cc(Cl)ccc1S(=O)(=O)NC(c1c[nH]c2ccccc12)C(Cl)(Cl)Cl (stereo not shown) [M2-15]
13 | 2.85 | – | Cc1cccc(C)c1NC(=O)C(c1ccc(Cl)cc1)N1C(=O)CC1c1ccc(OC(C)C)cc1 (stereo not shown) [M1]
14 | 1.22 | – | O=S(=O)(NC(c1c[nH]c2cc(F)ccc12)C(Cl)(Cl)Cl)c1ccc(Cl)cc1 (stereo not shown) [M2-14]
15 | 0.704 | – | O=S(=O)(NC(c1c[nH]c2cc(Cl)ccc12)C(Cl)(Cl)Cl)c1ccc(Cl)cc1 (stereo not shown) [M2-11]
16 | 0.489 | – | O=S(=O)(NC(c1c[nH]c2cc(F)cc(F)c12)C(Cl)(Cl)Cl)c1ccc(Cl)cc1 (stereo not shown) [M2-13]
